Experimental data as given in ChEMBL document CHEMBL1201862, “PubChem BioAssay data set” (2004).
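Five concentrations, 48 hours, 96-well plates. GI50 marks 50% less growth.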 Active and inactive are the calls of the source. Rule as the data show it: active = GI50 up to about 1.1 µM and inactive = higher.

Assays:
Assay in all cases: growth of human tumour cells (NCI), 48 h
786-0 = tested on: 786-0
CAKI-1 = tested on: CAKI-1
DU-145 = tested on: DU-145
HCT-116 = tested on: HCT-116
HCT-15 = tested on: HCT-15
HT-29 = tested on: HT-29
Hs-578T = tested on: Hs-578T
KM12 = tested on: KM12
LOX IMVI = tested on: LOX IMVI
MDA-MB-231 = tested on: MDA-MB-231
MOLT-4 = tested on: MOLT-4
NCI-H460 = tested on: NCI-H460
NCI/ADR-RES = tested on: NCI/ADR-RES
OVCAR-5 = tested on: OVCAR-5
OVCAR-8 = tested on: OVCAR-8
RPMI-8226 = tested on: RPMI-8226
SF-268 = tested on: SF-268
SN12C = tested on: SN12C
SW-620 = tested on: SW-620
UACC-257 = tested on: UACC-257

SMILES	GI50 (786-0)	GI50 (CAKI-1)	GI50 (DU-145)	GI50 (HCT-116)	GI50 (HCT-15)	GI50 (HT-29)	GI50 (Hs-578T)	GI50 (KM12)	GI50 (LOX IMVI)	GI50 (MDA-MB-231)	GI50 (MOLT-4)	GI50 (NCI-H460)	GI50 (NCI/ADR-RES)	GI50 (OVCAR-5)	GI50 (OVCAR-8)	GI50 (RPMI-8226)	GI50 (SF-268)	GI50 (SN12C)	GI50 (SW-620)	GI50 (UACC-257)
NC(=O)C(Nc1c(Cl)cccc1Cl)c1cc2cc(Br)ccc2nc1Cl (configuration not stated)	> 100 µM (inactive)	76.6 µM (inactive)	> 100 µM (inactive)	41.9 µM (inactive)	24.4 µM	52.8 µM (inactive)	85.3 µM (inactive)	38 µM (inactive)	59.6 µM (inactive)	44.1 µM (inactive)	20.7 µM (inactive)	90.8 µM (inactive)	42.5 µM (inactive)	> 100 µM (inactive)	80.7 µM (inactive)	31.5 µM (inactive)	49.8 µM (inactive)	63.1 µM (inactive)	37.6 µM (inactive)	83.2 µM (inactive)
C=CC/N=C(\S)Nc1sc2c(c1C(=O)OCC)CC(C)CC2 (configuration not stated)	33.9 µM (inactive)	36.1 µM (inactive)	30.6 µM (inactive)	24.8 µM (inactive)	31.8 µM	21.5 µM (inactive)	36.6 µM (inactive)	34.8 µM (inactive)	32.9 µM (inactive)	24.8 µM (inactive)	28.8 µM (inactive)	20.8 µM (inactive)	31.1 µM (inactive)	30.3 µM (inactive)	36.7 µM (inactive)	23.1 µM (inactive)	35 µM (inactive)	29.9 µM (inactive)	32.8 µM (inactive)	20.8 µM (inactive)
C/C(=N/NC(=S)N(C)C)c1ccccc1O	6.32 µM (inactive)	25.7 µM (inactive)	18.9 µM (inactive)	3.33 µM (inactive)	3.28 µM	3.26 µM (inactive)	> 72.4 µM (inactive)	8.85 µM (inactive)	4.86 µM (inactive)	35.8 µM (inactive)	20.5 µM (inactive)	2.26 µM (inactive)	3.53 µM (inactive)	17.4 µM (inactive)	5.22 µM (inactive)	> 31.8 µM (inactive)	6.07 µM (inactive)	14.4 µM (inactive)	9.4 µM (inactive)	17.1 µM (inactive)
COC(=O)c1cc(C#N)[nH]c1-c1cc(Br)cs1	19.1 µM (inactive)	17.5 µM (inactive)	13.3 µM (inactive)	12.8 µM (inactive)	15.1 µM	14.2 µM (inactive)	14.5 µM (inactive)	20.7 µM (inactive)	11.3 µM (inactive)	20.2 µM (inactive)	17.9 µM (inactive)	19.8 µM (inactive)	13.4 µM (inactive)	16.3 µM (inactive)	14.7 µM (inactive)	7.55 µM (inactive)	17.7 µM (inactive)	14.9 µM (inactive)	17.7 µM (inactive)	11.4 µM (inactive)
Cc1cnc2nc(-c3ccc(Cl)cc3)cc(O)c2c1	6.17 µM (inactive)	5.33 µM (inactive)	11.1 µM (inactive)	3.84 µM (inactive)	2.07 µM	3.27 µM (inactive)	6.7 µM (inactive)	3.76 µM (inactive)	4.63 µM (inactive)	5.27 µM (inactive)	3.31 µM (inactive)	3.47 µM (inactive)	6.1 µM (inactive)	11.1 µM (inactive)	9.14 µM (inactive)	3.88 µM (inactive)	19.7 µM (inactive)	6.31 µM (inactive)	4.06 µM (inactive)	11.5 µM (inactive)
COc1ccc(NC(=O)C(=O)C(CC2C(=O)NC(=S)NC2=O)C(=O)c2ccc3ccccc3c2)c([N+](=O)[O-])c1 (configuration not stated)	> 100 µM (inactive)	> 100 µM (inactive)	> 100 µM (inactive)	> 100 µM (inactive)	> 100 µM	> 100 µM (inactive)	> 100 µM (inactive)	> 100 µM (inactive)	> 100 µM (inactive)	> 100 µM (inactive)	> 100 µM (inactive)	> 100 µM (inactive)	> 100 µM (inactive)	> 100 µM (inactive)	> 100 µM (inactive)	76.9 µM (inactive)	> 100 µM (inactive)	> 100 µM (inactive)	> 100 µM (inactive)	> 100 µM (inactive)
C#CCOC(=O)[C@@H](C)c1ccc2cc(OC)ccc2c1	71.9 µM (inactive)	> 100 µM (inactive)	> 100 µM (inactive)	> 100 µM (inactive)	28.4 µM	–	> 100 µM (inactive)	> 100 µM (inactive)	70.1 µM (inactive)	> 100 µM (inactive)	32.1 µM (inactive)	> 100 µM (inactive)	68.2 µM (inactive)	> 100 µM (inactive)	> 100 µM (inactive)	29.5 µM (inactive)	> 100 µM (inactive)	> 100 µM (inactive)	> 100 µM (inactive)	96.2 µM (inactive)
O=C(NCCCCCCNC(=O)c1cccc2ccccc12)Nc1cccc2ccccc12	> 100 µM (inactive)	> 100 µM (inactive)	> 100 µM (inactive)	> 100 µM (inactive)	> 100 µM	> 100 µM (inactive)	> 100 µM (inactive)	> 100 µM (inactive)	> 100 µM (inactive)	> 100 µM (inactive)	> 100 µM (inactive)	> 100 µM (inactive)	> 100 µM (inactive)	> 100 µM (inactive)	> 100 µM (inactive)	> 100 µM (inactive)	> 100 µM (inactive)	> 100 µM (inactive)	> 100 µM (inactive)	> 100 µM (inactive)
CC(C)=CCC(O)C1=CC(=O)c2c(O)ccc(O)c2C1=O (configuration not stated)	0.494 µM (active)	0.407 µM (active)	1.22 µM (inactive)	1.25 µM (inactive)	0.21 µM	1.97 µM (inactive)	2.9 µM (inactive)	4.7 µM (inactive)	1.22 µM (inactive)	1.55 µM (inactive)	0.063 µM (active)	1.88 µM (inactive)	2.05 µM (inactive)	1.97 µM (inactive)	1.55 µM (inactive)	0.23 µM (active)	2.27 µM (inactive)	0.664 µM (active)	0.933 µM (active)	1.5 µM (inactive)
CCOC(=O)/C=C/C1OC(C)(C)OC1/C=C/C(=O)OCC (configuration not stated)	32.2 µM (inactive)	20.8 µM (inactive)	34.8 µM (inactive)	30.8 µM (inactive)	23.4 µM	18.2 µM (inactive)	37.8 µM (inactive)	25.4 µM (inactive)	27 µM (inactive)	39.9 µM (inactive)	28.4 µM (inactive)	21.2 µM (inactive)	32.7 µM (inactive)	29.9 µM (inactive)	25.5 µM (inactive)	24.8 µM (inactive)	41.4 µM (inactive)	22.6 µM (inactive)	19.7 µM (inactive)	48.4 µM (inactive)
CC1CC(C)C(O)C(C2CC(CC(=O)NC3CCCCC3)CC(=O)O2)C1 (configuration not stated)	> 100 µM (inactive)	> 100 µM (inactive)	> 100 µM (inactive)	> 100 µM (inactive)	> 100 µM	> 100 µM (inactive)	> 100 µM (inactive)	> 100 µM (inactive)	> 100 µM (inactive)	> 100 µM (inactive)	> 100 µM (inactive)	> 100 µM (inactive)	> 100 µM (inactive)	> 100 µM (inactive)	> 100 µM (inactive)	> 100 µM (inactive)	> 100 µM (inactive)	87.9 µM (inactive)	> 100 µM (inactive)	> 100 µM (inactive)
O=C1Nc2ccccc2/C1=N/Nc1ccc([N+](=O)[O-])cc1	13.8 µM (inactive)	15.5 µM (inactive)	12.9 µM (inactive)	20.7 µM (inactive)	30.3 µM	61.8 µM (inactive)	9.06 µM (inactive)	20.2 µM (inactive)	21.5 µM (inactive)	24.8 µM (inactive)	21.1 µM (inactive)	30.1 µM (inactive)	15.4 µM (inactive)	20.4 µM (inactive)	11.5 µM (inactive)	24.8 µM (inactive)	10.4 µM (inactive)	22.6 µM (inactive)	33.5 µM (inactive)	29.5 µM (inactive)
Oc1ccccc1-c1n[nH]c(-c2ccccc2O)n1	4.18 µM (inactive)	3.22 µM (inactive)	8.13 µM (inactive)	1.32 µM (inactive)	0.149 µM	3.91 µM (inactive)	> 66.1 µM (inactive)	1.49 µM (inactive)	2.06 µM (inactive)	1.44 µM (inactive)	1.24 µM (inactive)	0.573 µM (active)	2.45 µM (inactive)	7.11 µM (inactive)	2.72 µM (inactive)	2.44 µM (inactive)	3.05 µM (inactive)	2.17 µM (inactive)	2.55 µM (inactive)	–
CC1=NOC(=O)/C1=C/c1ccc2c(c1)OCO2	21.9 µM (inactive)	17.3 µM (inactive)	25.1 µM (inactive)	34 µM (inactive)	20.8 µM	24.4 µM (inactive)	39.5 µM (inactive)	19.1 µM (inactive)	19 µM (inactive)	24.5 µM (inactive)	–	35.1 µM (inactive)	39.5 µM (inactive)	37.1 µM (inactive)	25.4 µM (inactive)	21.8 µM (inactive)	34.8 µM (inactive)	25.4 µM (inactive)	21.1 µM (inactive)	73.5 µM (inactive)
